{
  "source": "patent US8252807B2",
  "about": "“Methods of inhibiting the interaction between S100 and the receptor for advanced glycation end-products” (Board of Regents, The University of Texas System, priority 2007, dated 2012)",
  "molecules": {"B1": {"name": "S100P: purified His-tagged full-length human S100P protein, added exogenously as RAGE ligand (protein, UniProt P25815 1-95, looked up)", "chain": "MTELETAMGMIIDVFSRYSGSEGSTQTLTKGELKVLMEKELPGFLQSGKDKDAVDKLLKDLDANGDAQVDFSEFIVFVAAITSACHKYFEKAGLK", "modifications": "full-length His tag", "notes": "purified His-tagged full-length human S100P protein, added exogenously as RAGE ligand"}},
  "key": {"[1]": {"tested_on": "NFκB activity in MPanc-96 cells", "test": "S100P stimulated NFκB luciferase reporter, MPanc-96", "type": "cell-based, human", "method": "MPanc-96 pancreatic cancer cell lines stably expressing an NFκB luciferase reporter were examined for the effects of S100P, cromolyn and C5. Cells were plated at 5.0×10^3 cells/well, treated for 5 hours with 100 nM of S100P, with or without cromolyn and C5 (1 μM), and activity of a luciferase gene driven by the NFkB promoter was analyzed. P=0.05 C5 versus cromolyn. Two-tailed two-sample (unpaired) Student's t-tests were used to determine P values."}, "BxPC-3 cells": {"tested_on": "BxPC-3 cells", "test": "BxPC-3 cell viability, 72 hours", "type": "cell-based", "method": "BxPC-3 cells were plated at 1.0×10^3 cells/well and treated with 0 μM, 1 μM, 10 μM, and 100 μM of cromolyn or C5 alone or in combination with gemcitabine 1 μM and cell viability was analyzed after 72 hours. Two-tailed two-sample (unpaired) Student's t-tests were used to determine P values. […] BxPC-3 cells were plated at 1.0×10^3 cells/well and treated with either 100 μM of cromolyn or 1 μM C5 alone or in combination with gemcitabine (1 μM) and cell viability was analyzed after 72 hours."}, "MPanc-96 cells": {"tested_on": "MPanc-96 cells", "test": "MPanc-96 cell apoptosis by flow cytometry, 72 hours", "type": "cell-based, human", "conditions": "100 and 1000 nM, with or without gemcitabine 10 μM", "method": "FIG. 11 compares the effects of cromolyn and C5 alone and in combination with gemcitabine on MPanc-96 cell apoptosis. MPanc-96 cells were treated with cromolyn or C5 (100 and 1000 nM) with (+) or without (−) gemcitabine (10 μM). Apoptosis was analyzed after 72 hours by flow cytometry."}, "S100B with RAGE": {"target": "S100B with RAGE (Homo sapiens, UniProt P04271)", "sequence (P04271 whole entry, species assumed)": "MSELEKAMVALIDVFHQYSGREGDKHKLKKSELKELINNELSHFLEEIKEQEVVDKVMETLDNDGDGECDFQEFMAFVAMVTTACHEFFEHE", "test": "S100B binding with RAGE ELISA (sRAGE coated plate)", "from_the_text": "After removing un-bound S100B by washing with detergent, bound S100B and RAGE complex was quantified by adding HRP labeled antibody against S100B."}, "S100P binding with RAGE": {"target": "T1, S100P binding with RAGE (Homo sapiens, UniProt P25815)", "T1 construct": "full-length human S100P cDNA (NM_005980) was cloned into the pTrcHis2 vector; His tag", "T1 sequence (P25815 1-95)": "B1 chain", "test": "S100P binding with RAGE ELISA (sRAGE coated plate)", "method": "After removing un-bound S100P by washing with detergent, the bound S100P and RAGE complex was quantified by adding HRP labeled antibody against S100P. *, P=0.04 C5 μM versus cromolyn 5 μM. Two-tailed two-sample (unpaired) Student's t-tests were used to determine P values."}, "Panc-1 cells [2]": {"tested_on": "Panc-1 cells", "test": "Panc-1 cell growth (MTS)", "type": "cell-based", "method": "Panc-1 pancreatic adenocarcinoma cells (1.0×10^3 cells/well) were cultured in the presence or absence of S100P (100 nM) and with or without cromolyn (100 μM), and cell proliferation was analyzed at 24, 48, and 72 hours. Means and 95% confidence intervals of three independent experiments performed in triplicate are shown. *, P=0.001, S100P alone versus S100P+cromolyn.\nPanc-1 cells were plated at 1.0×10^3 cells/well and treated with platelet-derived growth factor (10 ng/mL) with or without cromolyn (100 μM), and cell proliferation was analyzed after 48 hours. Means and 95% confidence intervals of three independent experiments performed in triplicate are shown. *, P=0.004 PDGF and P=0.022 cromolyn+PDGF versus control.\nGrowth of Panc-1 and BxPC3 pancreatic adenocarcinoma cells was analyzed using MTS reagent (Promega, Madison, Wis.) according to the manufacturer's directions. Purified S100P (100 nM final concentration) with or without cromolyn (100 μM final concentration) was added to Panc-1 cells. Only cromolyn (0-100 μM) was added to BxPC-3 cells, which express endogenous S100P. For both cell models, 1.0×10^3 cells/well were plated in 96-well culture dishes. Cells were treated with S100P, PDGF, or cromolyn, or a combination, followed immediately by treatment with either S100P or PDGF. MTS (20 μL per well) was added to cells at various times, and the mixture was incubated for 1 hour at 37° C. Samples were then read at 490 nm (as O.D. units) on a uQuant-Microplate Spectrophotometer (Bio-Tek Services Inc., Richmond, Va.). The assay was performed three times in triplicate."}, "[3]": {"tested_on": "NFκB promoter activity in Panc-1 cells", "test": "Luciferase assay for NFκB activity, Panc-1", "type": "cell-based", "conditions": "for NFκB promoter activity in Panc-1 cells, mean: 5 hours, 0 nM mean=3358", "method": "FIGS. 3A, 3B, and 3C show the effect of cromolyn on S100P stimulated NFκB promoter activity in pancreatic cancer cells in vitro and in vivo. Panc-1 and BxPC-3 pancreatic cancer cell lines stably expressing an NFκB luciferase reporter were examined for the effects of S100P and cromolyn. […] Means and 95% confidence intervals are shown for three independent experiments performed in triplicate. *, P=0.022, †, P<0.001, and ‡, P<0.001 versus control; #, P=0.005 versus 100 nM S100P alone. […] Means and 95% confidence intervals are shown for three independent experiments performed in triplicate. *, P=0.003, †, P<0.001 versus control. […] After 1 week, tumor growth was assessed and NFκB activity was analyzed using an IVIS system (Xenogen Corp., Alameda, Calif.) after injecting mice with D-luciferin (150 mg per kg body weight) (0 time point). The mice were treated with cromolyn (5 mg per kg body weight by intraperitoneal injection), and NFκB luciferase activity was analyzed again at 24 and 48 hours. *, P=0.005 versus control. Means and 95% confidence intervals are shown for two independent experiments (n=4 mice per group). Two-tailed two-sample (unpaired for in vitro and paired for in vivo studies) Student's t-tests were used to determine P values.\nTo study pancreatic cancer cell NFκB activity, a lentivirus NFκB luciferase reporter gene construct was developed. The NFκB luciferase reporter gene was excised and isolated from the pNF-κB-Luc Vector (Clonetec, Mountain View, Calif.) and cloned into the lentiviral vector FG9 (Gift from Dr. Xiao-Feng Qin, Dept. of Immunology, M.D. Anderson Cancer Center replacing the CMV/LTR and UBiC promoters, to form Lenti-NFκB-Luc. Lentiviral NFκB vector were co-transfected with packaging constructs pRSVREV, pMDLg/pRRE, and the VSV-G expression plasmid pHCMVG, and lentivirus was produced in 293T cells by the calcium transfection method, as previously described in Qin, et al., Inhibiting HIV-1 infection in human T cells by lentiviral-mediated delivery of small interfering RNA against CCR5; Proc. Natl. Acad. Sci. U.S.A. 2003 Jan. 7; 100(1):183-8. […] Functional validation of NFκB reporter activity was conducted in vitro using TNF-α (20 ng/mL, Sigma, St. Louis, Mo.) as a positive control.\nBxPC-3 and Panc-1 cells stably expressing a Lenti-NFkB-luc reporter construct were treated with S100P, cromolyn, or the combination for 5 hours. D-luciferin (150 μg/mL) was added to the cells, and luciferase activity was measured using an IVIS bioluminescence system (Xenogen Co. Alameda, Calif.). Each experiment was conducted three times in triplicate."}, "Panc-1 cells [4]": {"tested_on": "Panc-1 cells", "test": "Matrigel invasion assay, Panc-1", "type": "cell-based", "conditions": "S100P 100 nM alone, 24 hours", "method": "FIGS. 2A-2D show the effect of cromolyn on pancreatic cancer cell invasion. Panc-1 and BxPC-3 cells were plated in Bio-coat matrigel and control chambers and cultured in serum-free culture media. After 24 hours non-invaded cells in the upper chamber were removed, and cells that invaded onto the lower surface of the membrane were counted from five adjacent fields. […] Data are expressed as the percent invasion through the matrigel matrix and membrane relative to migration through the control membrane. Means and 95% confidence intervals from three independent experiments performed in triplicate are shown. Two-tailed two-sample (unpaired) Student's t-tests were used to determine P values.\nPanc-1 and BxPC-3 cells were seeded in BIOCOAT matrigel invasion chambers and in control chambers without matrigel (Becton-Dickinson, Bedford, Mass.) according to the manufacturer's protocol. Panc-1 cells were seeded with S100P (100 nM) with or without cromolyn (100 μM), and BxPC-3 cells were seeded with or without cromolyn (1-100 μM). Briefly, 2.0×10^5 cells in 300 μL top solution (serum-free media) were added to each chamber and allowed to invade matrigel for 24 hours at 37° C. in a 5% CO2 atmosphere. The non-invading cells on the upper surface of membrane were removed from the chambers with a cotton swab, and the invading cells on the lower surface of the membrane were fixed and stained using a Diff-Quick stain kit (Becton Dickinson, Bedford, Mass.). After two washes with water, the chambers were allowed to air dry. The numbers of invading cells in five adjacent microscope fields per membrane were counted at 20× magnification to obtain the average number of cells per field. Data are expressed as the percent invasion through the matrigel matrix and membrane relative to the migration through the control membrane. The assays were performed three times."}},
  "data": [
    {"molecule": "O=C([O-])c1cc(=O)c2c(OCCCCCOc3cccc4oc(C(=O)[O-])cc(=O)c34)cccc2o1.[Na+].[Na+]", "note": "[C5, disodium 1,5-bis(2-carboxychromon-5-yloxy) pentane]", "values": [
      {"measurement": "NFκB activity in pancreatic cancer cells in vitro", "setting": "[1]; S100P 100 nM, compound 1 μM, 5 hours", "result": "inhibit NFκB activity"},
      {"measurement": "reduction of S100P induced NFκB activity relative to cromolyn", "setting": "[1]; same dose (1 μM)", "result": "much better than cromolyn"},
      {"measurement": "BxPC-3 cell viability", "setting": "BxPC-3 cells; 1-100 μM, alone or with gemcitabine 1 μM", "result": "inhibit BxPC-3 cell viability"},
      {"measurement": "inhibition of BxPC-3 cell viability relative to cromolyn", "setting": "BxPC-3 cells; alone at 10 or 100 μM, with gemcitabine at 1-100 μM", "result": "more potent and more efficacious than cromolyn"},
      {"measurement": "concentration giving the same level of cell reduction in combination with gemcitabine", "setting": "BxPC-3 cells; with gemcitabine 1 μM", "result": 1, "unit": "µM"},
      {"measurement": "MPanc-96 cell viability", "setting": "MPanc-96 cells", "result": "inhibit MPanc-96 cell viability"},
      {"measurement": "interaction of S100B with RAGE", "setting": "S100B with RAGE", "result": "inhibit the interaction of S100B with RAGE"},
      {"measurement": "concentration achieving the same level of S100P inhibition", "setting": "S100P binding with RAGE", "result": 100, "unit": "nM"},
      {"measurement": "interaction between S100P with RAGE", "setting": "S100P binding with RAGE", "result": "blocked"},
      {"measurement": "potency relative to cromolyn in blocking S100P-RAGE interaction", "setting": "S100P binding with RAGE", "result": "more potent than cromolyn"}
    ]},
    {"molecule": "PDGF", "values": [
      {"measurement": "Panc-1 cell growth, difference control versus PDGF", "setting": "Panc-1 cells [2]; PDGF 10 ng/mL, 48 hours", "result": 0.2, "unit": "MTS units"},
      {"measurement": "Panc-1 cell growth, mean", "setting": "Panc-1 cells [2]; PDGF 10 ng/mL, 48 hours, control mean=0.5", "result": 0.7, "unit": "MTS units"}
    ]},
    {"molecule": "B1", "values": [
      {"measurement": "NFκB promoter activity in Panc-1 cells, difference versus 0 nM", "setting": "[3]; S100P 1 nM", "result": 3544, "unit": "photons/sec"},
      {"measurement": "NFκB promoter activity in Panc-1 cells, mean", "setting": "[3]; S100P 1 nM", "result": 6902, "unit": "photons/sec"},
      {"measurement": "NFκB promoter activity in Panc-1 cells, difference versus 0 nM", "setting": "[3]; S100P 10 nM", "result": 5400, "unit": "photons/sec"},
      {"measurement": "NFκB promoter activity in Panc-1 cells, mean", "setting": "[3]; S100P 10 nM", "result": 8758, "unit": "photons/sec"},
      {"measurement": "NFκB promoter activity in Panc-1 cells, difference versus 0 nM", "setting": "[3]; S100P 100 nM", "result": 11100, "unit": "photons/sec"},
      {"measurement": "NFκB promoter activity in Panc-1 cells, mean", "setting": "[3]; S100P 100 nM", "result": 14460, "unit": "photons/sec"},
      {"measurement": "Panc-1 cells invaded, mean", "setting": "Panc-1 cells [4]", "result": 58.0, "unit": "%"},
      {"measurement": "Panc-1 cell proliferation, mean", "setting": "Panc-1 cells [2]; S100P 100 nM alone", "result": 0.93, "unit": "MTS units"}
    ]}
  ]
}
